This is an account of results in patent US20070298994A1, “Use of 3-Mercapto-3-Methyl-Hexan-1-Ol for Use as Malodour Standard” (SYMRISE GMBH & CO. KG, priority 2004, published 2007).

The first test can be described thus: Raw material test against sweat odour (masking of malodour standard, assessor panel). To be noted: Table 1; 1 μl fragrance + 5 μl 3-mercapto-3-methyl-hexan-1-ol (0.1% in DPG) in 7 l air, 15 h at approx. 20° C.; scale 1 to 9, malodour standard mixture = 6; mean of at least 8 assessors.
Consider `CC1=CC(C)C(C(=O)C(C)(C)C)CC1` (centres unmarked), for which the “Increase In intensity” value turned out to be 1.4 and the Odour reduction value is listed as 3.5.

In the case of `CCOC(C=C(C)CCC=C(C)C)OCC`, the “Increase In intensity” value is given as −0.7 and the Odour reduction value is on record as 4.3.

`CC1COCc2cc3c(cc21)C(C)(C)C(C)C3(C)C` (centres unmarked): the “Increase In intensity” value is −2.3 and the Odour reduction value was 4.3.

For the compound `CC1OC(C)C2Cc3ccccc3C2O1` (centres unmarked), the “Increase In intensity” value came to 1.1 and the Odour reduction value was 4.1.

Consider `COC1C=C2C(C)(C)C3CCC2(C3)C(C)(C)C1` (centres unmarked), for which the “Increase In intensity” value is given as 0.5 and the Odour reduction value is 4.3.

As for `CC(=CCC1CCC=C(C)C1(C)C)CO` (centres unmarked), the “Increase In intensity” value is 0.0 and the Odour reduction value amounted to 3.0.

For the compound `CC(=CO)CCC1CC=C(C)C1(C)C` (centres unmarked), the “Increase In intensity” value amounted to 0.3 and the Odour reduction value was 3.8>.

As to `CC1=CCC=C(C)C(O)CCC=C(C)CC1` (centres unmarked), the “Increase In intensity” value stood at 1.5 and the Odour reduction value was found to be 4.5.

Regarding `Cc1cccc(CC(C)(C)CO)c1`, the “Increase In intensity” value turned out to be 1.2 and the Odour reduction value is 4.4.

With `CC(C)=CCC(C)(C)C(=O)C(C)C`, the “Increase In intensity” value turned out to be 1.0 and the Odour reduction value was 3.3.

With `CC(C)=CCCC(C)=CCCC(C)C=O` (centres unmarked), the “Increase In intensity” value was determined as 0.2 and the Odour reduction value is given as 3.8.

Take `CC(=O)C1(C)CC2=C(CCCC2(C)C)CC1C` (centres unmarked): the “Increase In intensity” value is recorded as 0.2 and the Odour reduction value is given as 3.4.

Turning to `CC(=O)C(C)=CC1C(C)=CCCC1(C)C` (centres unmarked), the “Increase In intensity” value is on record as −0.7 and the Odour reduction value amounted to 5.1.

As to `CCc1ccc(CC(C)(C)C=O)cc1`, the “Increase In intensity” value is listed as −1.9 and the Odour reduction value was 3.7.

Consider `CCCC(=O)C(CC)Cc1ccccc1` (centres unmarked), for which the “Increase In intensity” value is reported as 0.1 and the Odour reduction value is 4.6.

Take `CC(=O)C(C)=C(C)C(C)C(C)(C)C` (centres unmarked): the “Increase In intensity” value was 1.6 and the Odour reduction value came to 3.2.

For `C=CC(C)(O)CCC=C(C)CC` (centres unmarked), the “Increase In intensity” value was 1.0 and the Odour reduction value is given as 3.1.

For the compound `CC(C)=CCC(C)(C)C1OCC=CCO1`, the “Increase In intensity” value is reported as 0.0 and the Odour reduction value is given as 3.7.

Consider `CC1=CCC(C(C)CC=O)CC1` (centres unmarked), for which the “Increase In intensity” value came out at 0.9 and the Odour reduction value is 3.9.

Consider `C/C=C/C(=O)C1CCC(C)(C)C=C1C` (centres unmarked), for which the “Increase In intensity” value came to 1.0 and the Odour reduction value is 5.0.

`O=C1CCCCCCCCC/C=C/CCCO1`: the “Increase In intensity” value came out at 0.0 and the Odour reduction value is 4.0.

On to `CC(C)=CCCC(C)CCOCC=O` (centres unmarked), for which the “Increase In intensity” value worked out at 1.5 and the Odour reduction value turned out to be 3.8.

Take `CCCCCCC1OC(=O)CC1C` (mixture of isomers) [(E/Z) 5-HEXYLDIHYDRO-4-METHYL-2-FURANONE]: the “Increase In intensity” value worked out at 1.2 and the Odour reduction value came out at 4.2.

Regarding `CCC(O)CC[C@H]1[C@@H](C)CCCC1(C)C` (relative stereo), the “Increase In intensity” value is on record as 0.8 and the Odour reduction value worked out at 3.1.

As for `CC1=C[C@H](C)[C@H](C=O)CC1` (relative stereo), the “Increase In intensity” value is −1.3 and the Odour reduction value was found to be 4.4.

`CC=CC(=O)C1C(C)=CCCC1(C)C` (stereo in doubt) [ALPHA-DAMASCONE]: the “Increase In intensity” value was −2.0 and the Odour reduction value amounted to 4.1.

As for `c1ccc2c(c1)CC1COCOC21` (centres unmarked) [1,4A,9,9A-TETRAHYDRO-2,4-DIOXA-FLUORENE], the “Increase In intensity” value came to 1.0 and the Odour reduction value was found to be 4.3.

The same test, now with this note: Table 2 (raw materials without adequate malodour-reducing action); 1 μl fragrance + 5 μl 3-mercapto-3-methyl-hexan-1-ol (0.1% in DPG) in 7 l air, 15 h; scale 1 to 9, standard = 6.
Take `CC(=O)O[C@@H]1C[C@H]2CC[C@]1(C)C2(C)C` (racemic) [ACETIC ACID ISOBORNYL ESTER, reference compound]: the Increase in intensity is recorded as −0.5 and the Malodour reduction value is listed as 2.3.
